Here are results for 7 molecules from ChEMBL document CHEMBL1201862, “PubChem BioAssay data set” (2004).

Among the test systems are SNB-19; COLO 205; UO-31; MDA-N; SNB-75; SF-295; MDA-MB-435; TK-10; UACC-257; MOLT-4; A498; SK-MEL-5; T47D; U-251; 786-0; Hs-578T; DU-145; CAKI-1; NCI-H226; SK-MEL-28.
Assay in all cases: DTP human tumour cell line panel, 48 h

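Where inhibition never reached the appropriate level, the endpoint shown equals the highest concentration tested. Otherwise, values were interpolated linearly from a five-concentration, 48-hour dose response in 96-well plates. GI50 marks 50% less growth.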 Activity calls are given as the source filed them. No stated cut-off is given here; in the data, active = GI50 up to about 1.1 µM and inactive = higher.

For `c1cc(-c2csc(-c3ccsc3)c2)cs1`, the GI50 with SNB-19 is 53.1 µM (inactive); in the experiment with COLO 205, > 100 µM (inactive); in the experiment with UO-31, > 100 µM (inactive); in the experiment with MDA-N, > 100 µM (inactive); in the experiment with SNB-75 it was > 100 µM (inactive); in the experiment on SF-295 it was > 100 µM (inactive). Also, the GI50 with MDA-MB-435, with TK-10, in the experiment with UACC-257, in the experiment on MOLT-4, with A498 and with SK-MEL-5 was > 100 µM (inactive) throughout. Further, the GI50 with T47D, in the experiment with U-251, with 786-0, with Hs-578T, with DU-145 and with CAKI-1 was > 100 µM (inactive) each time. Besides, the GI50 was 13.5 µM (inactive) with NCI-H226 and > 100 µM (inactive) with SK-MEL-28.
For the molecule `CCOC(=O)Cc1ccc(Nc2nc3ccccc3nc2C(=O)OCC)cc1`, the GI50 with SNB-19 is 11.2 µM (inactive); in the experiment on COLO 205, > 100 µM (inactive); with UO-31, 14.5 µM (inactive); in the experiment on MDA-N it was > 100 µM (inactive); in the experiment on SNB-75, 17.9 µM (inactive); in the experiment with SF-295, 32.9 µM (inactive). Besides, the GI50 in the experiment with MDA-MB-435 is > 100 µM (inactive); in the experiment with TK-10, 37.1 µM (inactive); in the experiment with UACC-257, > 100 µM (inactive); in the experiment on MOLT-4, > 100 µM (inactive); in the experiment on A498, 20.7 µM (inactive); in the experiment with SK-MEL-5, 46.1 µM (inactive). Moreover, the GI50 is 36.6 µM (inactive) in the experiment on T47D; 51.3 µM (inactive) in the experiment on U-251; 34 µM (inactive) in the experiment on 786-0; 34.5 µM (inactive) in the experiment on Hs-578T; 95.9 µM (inactive) in the experiment with DU-145; 83.6 µM (inactive) in the experiment with CAKI-1. Further, the results for the GI50 in the experiment with NCI-H226 and in the experiment on SK-MEL-28 were 4.8 µM (inactive) and > 100 µM (inactive), respectively.
Take `COC(=O)C(CCc1ccccc1I)C1=CCC2(CC1)OCCO2` (stereo not given): the GI50 with SNB-19 was 36.3 µM (inactive); with COLO 205, 57.9 µM (inactive); with UO-31 it was 23.1 µM (inactive); in the experiment on MDA-N, 24.2 µM (inactive); in the experiment on SNB-75, 34 µM (inactive); in the experiment with SF-295, 36.9 µM (inactive). In addition, the GI50 is 27.1 µM (inactive) in the experiment on MDA-MB-435; 38.3 µM (inactive) in the experiment with TK-10; 29.4 µM (inactive) with UACC-257; 49.8 µM (inactive) in the experiment on MOLT-4; > 100 µM (inactive) in the experiment on A498; 15 µM (inactive) in the experiment on SK-MEL-5. For the same molecule, the GI50 in the experiment with T47D is 15.8 µM (inactive); in the experiment on U-251 it was 61.8 µM (inactive); in the experiment on 786-0 it was 51.3 µM (inactive); in the experiment on Hs-578T, 37.6 µM (inactive); with DU-145 it was 73.8 µM (inactive); with CAKI-1, 95.3 µM (inactive). The GI50 in the experiment with NCI-H226 was > 100 µM (inactive); in the experiment with SK-MEL-28, 89.9 µM (inactive).
As to `N#C/C(N)=C(C#N)/N=C/Nc1ccccc1N`, the GI50 with SNB-19, in the experiment with COLO 205, in the experiment on UO-31, in the experiment on MDA-N, in the experiment on SNB-75 and with SF-295 was > 100 µM (inactive) in each case. Besides, the GI50 in the experiment with MDA-MB-435, with TK-10, with UACC-257, in the experiment with MOLT-4, in the experiment with A498 and in the experiment with SK-MEL-5 was > 100 µM (inactive) in each case. For the same molecule, the GI50 with T47D, in the experiment on U-251, with 786-0, in the experiment with Hs-578T, with DU-145 and in the experiment on CAKI-1 was > 100 µM (inactive) each time. For the same molecule, the GI50 with NCI-H226 and in the experiment with SK-MEL-28 was > 100 µM (inactive) throughout.
As for `CC(C)NC(NC(C)C)=C(S(=O)(=O)C(F)(F)C(F)(F)C(F)(F)C(F)(F)F)S(=O)(=O)C(F)(F)C(F)(F)C(F)(F)C(F)(F)F`, the GI50 in the experiment on SNB-19, in the experiment on COLO 205, in the experiment with UO-31, with MDA-N, in the experiment on SNB-75 and in the experiment on SF-295 was > 100 µM (inactive) throughout. Besides, the GI50 with MDA-MB-435, in the experiment on TK-10, in the experiment with UACC-257, with MOLT-4, in the experiment on A498 and in the experiment with SK-MEL-5 was > 100 µM (inactive) throughout. Also, the GI50 in the experiment with T47D, with U-251, with 786-0, in the experiment with Hs-578T, in the experiment with DU-145 and with CAKI-1 was > 100 µM (inactive) throughout. Further, the GI50 with NCI-H226 and with SK-MEL-28 was > 100 µM (inactive) each time.
For the molecule `CCN1CCN(c2nc3ccccc3c3c2CCOc2ccccc2-3)CC1`, the GI50 is 39.1 µM (inactive) with SNB-19; 17.4 µM (inactive) in the experiment with COLO 205; 24.6 µM (inactive) in the experiment with UO-31; 25.7 µM (inactive) in the experiment with MDA-N; > 40.6 µM (inactive) in the experiment with SNB-75; 27.4 µM (inactive) in the experiment with SF-295. Further, the GI50 is 24.9 µM (inactive) in the experiment on MDA-MB-435; 39.5 µM (inactive) in the experiment on TK-10; 18.1 µM (inactive) in the experiment with UACC-257; 10.6 µM (inactive) in the experiment with MOLT-4; > 39.3 µM (inactive) in the experiment on A498; 15 µM (inactive) in the experiment with SK-MEL-5. Besides, the GI50 is 35.5 µM (inactive) in the experiment with T47D; 32.9 µM (inactive) in the experiment with U-251; 22.3 µM (inactive) in the experiment on 786-0; 29.9 µM (inactive) in the experiment on Hs-578T; > 31.6 µM (inactive) in the experiment with DU-145; 25.1 µM (inactive) in the experiment on CAKI-1. Moreover, the GI50 with NCI-H226 is > 47.1 µM (inactive); with SK-MEL-28 it was 16.6 µM (inactive).
Turning to `O=C1C(SCCO)=C(SCCO)C(=O)c2ccccc21`, the GI50 in the experiment on SNB-19 is 1.78 µM (inactive); in the experiment on COLO 205, 1.77 µM (inactive); in the experiment on UO-31, 1.08 µM (active); with MDA-N, 0.167 µM (active); with SNB-75, 1.29 µM (inactive); in the experiment with SF-295, 1.48 µM (inactive). The GI50 in the experiment with MDA-MB-435 was 0.186 µM (active); in the experiment with TK-10, 1.62 µM (inactive); in the experiment with UACC-257 it was 1.29 µM (inactive); in the experiment with MOLT-4 it was 0.0794 µM (active); with A498 it was 0.59 µM (active); in the experiment with SK-MEL-5, 0.238 µM (active). Moreover, the GI50 in the experiment on T47D was 1.22 µM (inactive); with U-251, 0.711 µM (active); with 786-0, 2.04 µM (inactive); with Hs-578T, 1.17 µM (inactive); with DU-145, 2.05 µM (inactive); with CAKI-1, 2.08 µM (inactive). Also, the GI50 in the experiment on NCI-H226 is 1.71 µM (inactive); in the experiment with SK-MEL-28, 1.67 µM (inactive).

Usually GI50 stands for the concentration giving 50% growth inhibition.
